US8722720B2, “Imidazole derivatives as IDO inhibitors” (NewLink Genetics Corporation, priority 2010, dated 2014)
Structures can show the parent of a compound that is named as a salt. Where two headings read alike, the source gives them in different places.

Target: T1, purified human IDO protein (Homo sapiens, UniProt P14902)
T1 construct: 2 extra amino acids (linker from the BglII cloning site of pQE70); made in house; host or cells: E. coli M15(pREP4) with plasmid pQE70-hIDO
Test: Enzymatic IDO assay (kynurenine production, absorbance at 480 nm)
Type: biochemical
Settings: values reported in ranges
Experimental: The inhibitors were initially diluted in DMSO at 100 mM and were diluted in potassium phosphate 50 mM, added to the reaction mixture at final concentrations raging from 1 mM to 5 nM and preincubated with the enzyme for 5 min at 25° C. The reaction was started by addition of L-tryptophan to 200 μM and incubated 15 min at 37° C. The reaction was stopped by addition of 0.5 vol of 30% trichloroacetic acid and incubated 30 min at 60° C. to hydrolyze N-formylkynurenine to kynurenine. The reaction was centrifuged at 3400 g for 5 min to remove precipitated protein and the supernatant was reacted with 2% (w/v) of p-dimethylaminobenzaldehyde in acetic acid. The reaction was incubated 10 min at 25° C. and read at 480 nm in a spectrophotometer. […] Nonlinear regressions and determination of the IC50 values were performed using the GraphPad Prism 4 software.

[1] = recombinant human IDO, read-out: hIDO IC50
[2] = hIDO IC50, recombinant human IDO

T1 sequence (P14902 whole entry P110S/E119G): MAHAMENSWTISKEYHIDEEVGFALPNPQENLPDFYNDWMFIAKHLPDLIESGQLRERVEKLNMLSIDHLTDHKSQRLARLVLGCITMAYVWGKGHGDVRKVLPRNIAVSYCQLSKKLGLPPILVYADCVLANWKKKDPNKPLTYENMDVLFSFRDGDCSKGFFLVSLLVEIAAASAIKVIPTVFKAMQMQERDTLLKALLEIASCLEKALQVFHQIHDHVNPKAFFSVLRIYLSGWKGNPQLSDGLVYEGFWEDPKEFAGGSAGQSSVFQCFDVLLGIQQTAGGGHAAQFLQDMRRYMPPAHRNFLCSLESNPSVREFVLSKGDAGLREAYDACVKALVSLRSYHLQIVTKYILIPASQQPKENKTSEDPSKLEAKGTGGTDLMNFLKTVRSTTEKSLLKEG

| Compound | IC50 [1] [µM] | IC50 [2] [µM] |
| --- | --- | --- |
| Clc1ccccc1CCOc1ccc(Br)cc1-c1c[nH]cn1 [compound 1021, 4-(5-bromo-2-(2-chlorophenethoxy)phenyl)-1H-imidazole] | 10 to 100 |  |
| Fc1ccc(COc2ccccc2-c2c[nH]cn2)cc1 [compound 1022, 4-(2-(4-fluorobenzyloxy)phenyl)-1H-imidazole] | 10 to 100 |  |
| FC(F)(F)c1ccc(COc2ccccc2-c2c[nH]cn2)cc1 [compound 1023, 4-(2-(4-(trifluoromethyl)benzyloxy)phenyl)-1H-imidazole] | > 100 |  |
| CC(Oc1ccccc1-c1c[nH]cn1)c1ccc(Cl)cc1 (centres unmarked) [compound 1024, 4-(2-(1-(4-chlorophenyl)ethoxy)phenyl)-1H-imidazole] | 10 to 100 |  |
| c1ccc2oc(-c3c[nH]cn3)cc2c1 [compound 1026, 4-(benzofuran-2-yl)-1H-imidazole] | > 100 |  |
| c1ccc(-c2c[nH]cn2)c(OCc2ccc3c(c2)OCO3)c1 [compound 1027, 4-(2-(benzo[d][1,3]dioxol-5-ylmethoxy)phen-yl)-1H-imidazole] | 10 to 100 |  |
| c1ccc(-c2c[nH]cn2)c(OCc2ccc3occc3c2)c1 [compound 1028, 4-(2-(benzofuran-5-ylmethoxy)phenyl)-1H-imidazole] | 10 to 100 |  |
| CCOC(=O)c1ccc(COc2ccccc2-c2c[nH]cn2)cc1 [compound 1029, ethyl 4-((2-(1H-imidazol-4-yl)phenoxy)methyl) benzoate] | 10 to 100 |  |
| C=C(COc1ccccc1-c1c[nH]cn1)c1coc2ccccc12 [compound 1030, 4-(2-(2-(benzofuran-3-yl)allyloxy)phenyl)-1H-imidazole] | 1 to 10 |  |
| CC(COc1ccccc1-c1c[nH]cn1)c1coc2ccccc12 (centres unmarked) [compound 1031, 4-(2-(2-(benzofuran-3-yl)propoxy)phenyl)-1H-imidazole] | 1 to 10 |  |
| O=C(O)c1ccc(COc2ccccc2-c2c[nH]cn2)cc1 [compound 1032, lithium 4-((2-(1H-imidazol-4-yl)phenoxy)methyl) benzoate] | 10 to 100 |  |
| CN(C)C(=O)Oc1ccc(Br)cc1-c1c[nH]cn1 [compound 1035, 4-bromo-2-(1H-imidazol-4-yl)phenyl dimethylcarbamate] |  | > 100 |
| CCOC(=O)Oc1ccc(Br)cc1-c1cn(C(=O)OCC)cn1 [compound 1036, ethyl 4-(5-bromo-2-(ethoxycarbonyloxy)phenyl)-1H-imidazole-1-carboxylate] | 10 to 100 |  |
| Fc1ccc(-c2cnc[nH]2)cc1Cl [compound 1037, 5-(3-chloro-4-fluorophenyl)-1H-imidazole] | 10 to 100 |  |
| Oc1ccc(Cl)cc1-c1cnc2cnccn12 [compound 1038, 4-chloro-2-(imidazo[1,2-a]pyrazin-3-yl)phenol] | > 100 |  |
| CN(C)C(=O)Oc1ccc(Cl)cc1-c1c[nH]cn1 [compound 1076, 4-chloro-2-(1H-imidazol-4-yl)phenyl dimethylcarbamate] |  | > 100 |
| CC(C)N(C(=O)Oc1ccc(Cl)cc1-c1c[nH]cn1)C(C)C [compound 1085, 4-chloro-2-(1H-imidazol-4-yl)phenyl diisopropylcarbamate] | > 100 |  |
| Oc1c(Cl)cc(Cl)c(OCCC2CCCCC2)c1-c1cnc[nH]1 [compound 1086, 4,6-dichloro-3-(2-cyclohexylethoxy)-2-(1H-imidazol-5-yl)phenol] |  | > 100 |
| O=C(Oc1ccc(Cl)cc1-c1c[nH]cn1)N1CCCC1 [compound 1087, 4-chloro-2-(1H-imidazol-4-yl)phenyl pyrrolidine-1-carboxylate] | > 100 |  |
| CN(C(=O)Oc1ccc(Cl)cc1-c1c[nH]cn1)c1ccccc1 [compound 1088, 4-chloro-2-(1H-imidazol-4-yl)phenyl methyl(phenyl)carbamate] |  | > 100 |
| CC(C)(C)CCOc1ccc(O)c(-c2cnc[nH]2)c1 [compound 1107, 4-(3,3-dimethylbutoxy)-2-(1H-imidazol-5-yl) phenol] | 10 to 100 |  |
| CC(C)(C)CCOc1ccc(O)cc1-c1c[nH]cn1 [compound 1110, 4-(3,3-dimethylbutoxy)-3-(1H-imidazol-4-yl) phenol] | 10 to 100 |  |
| CN1CCN(C(=O)Oc2ccc(Cl)cc2-c2c[nH]cn2)CC1 [compound 1112, 4-chloro-2-(1H-imidazol-4-yl)phenyl 4-methylpiperazine-1-carboxylate] |  | 10 to 100 |

Further lines, with some results ahead:

| IC50 [1] [µM] | Compound | IC50 [2] [µM] |
| --- | --- | --- |
| 1 to 10 | FC(F)(F)c1ccccc1CCOc1ccccc1-c1c[nH]cn1 [compound 1040, 4-(2-(2-(trifluoromethyl)phenethoxy)phenyl)-1H-imidazole] |  |
| 1 to 10 | CC(Cc1ccccc1Cl)Oc1ccccc1-c1c[nH]cn1 (centres unmarked) [compound 1043, 4-(2-(1-(2-chlorophenyl)propan-2-yloxy)phen-yl)-1H-imidazole] |  |
| 10 to 100 | CC(CC1CCCCC1)Oc1ccccc1-c1c[nH]cn1 (centres unmarked) [compound 1044, 4-(2-(1-cyclohexylpropan-2-yloxy)phenyl)-1H-imidazole] |  |
| 10 to 100 | CC(Oc1ccccc1-c1c[nH]cn1)c1ccccc1 (centres unmarked) [compound 1045, 4-(2-(1-phenylethoxy)phenyl)-1H-imidazole] |  |
| 1 to 10 | CC(C)(C)OC(=O)Nc1ccc(CCOc2ccccc2-c2c[nH]cn2)cc1 [compound 1046, tert-butyl 4-(2-(2-(1H-imidazol-4-yl)phenoxy)ethyl)phenylcarbamate] |  |
| > 100 | CCOC(=O)n1cnc(-c2ccccc2)c1 [compound 1047, ethyl 4-phenyl-1H-imidazole-1-carboxylate] |  |
| > 100 | Oc1c(-c2cnc[nH]2)[nH]c2ccccc12 [compound 1048, 2-(1H-imidazol-5-yl)-1H-indol-3-ol] |  |
| > 100 | NC(CCc1ccccc1-c1c[nH]cn1)C(=O)O (centres unmarked) [compound 1050, lithium 4-(2-(1H-imidazol-4-yl)phenyl)-2-amino-butanoate] |  |
| > 100 | COc1cc(F)c(Cl)cc1-c1cnc[nH]1 [compound 1051, 5-(5-chloro-4-fluoro-2-methoxyphenyl)-1H-imidazole] |  |
| 1 to 10 | CC(COc1ccccc1-c1c[nH]cn1)C1CCCCC1 (centres unmarked) [compound 1052, 4-(2-(2-cyclohexylpropoxy)phenyl)-1H-imidazole hydrochloride] |  |
| > 100 | Clc1ccc(OCc2ccccc2)c(-c2cncn2C2CCCCC2)c1 [compound 1060, 5-(2-(benzyloxy)-5-chlorophenyl)-1-cyclo-hexyl-1H-imidazole] |  |
| 1 to 10 | Nc1ccc(CCOc2ccccc2-c2c[nH]cn2)cc1 [compound 1078, 4-(2-(2-(1H-imidazol-4-yl)phenoxy)ethyl) aniline] |  |
| > 100 | O=C(O)CCSc1nc(-c2ccccc2)c(-c2ccccc2)[nH]1 [compound 1079, 3-(4,5-diphenyl-1H-imidazol-2-ylthio)propanoic acid] |  |
| 1 to 10 | CC(C)(C)C(=O)Nc1ccc(CCOc2ccccc2-c2c[nH]cn2)cc1 [compound 1101, N-(4-(2-(2-(1H-imidazol-4-yl)phenoxy)ethyl)phenyl)pivalamide] |  |
| < 1 | O=C(Cc1ccccc1)Nc1ccc(CCOc2ccccc2-c2cnc[nH]2)cc1 [compound 1102, N-(4-(2-(2-(1H-imidazol-4-yl)phenoxy)ethyl)phenyl)-2-phenylacetamide] |  |
| 1 to 10 | CC(C)(C)CC(=O)Nc1ccc(CCOc2ccccc2-c2c[nH]cn2)cc1 [compound 1103, N-(4-(2-(2-(1H-imidazol-4-yl)phenoxy)ethyl)phenyl)-3,3-dimethylbutanamide] |  |
| 1 to 10 | CCOC(=O)Nc1ccc(CCOc2ccccc2-c2c[nH]cn2)cc1 [compound 1104, ethyl 4-(2-(2-(1H-imidazol-4-yl)phenoxy)ethyl)phenylcarbamate] |  |
| 10 to 100 | Oc1ccc(OCc2ccccc2)cc1-c1cnc[nH]1 [compound 1105, 4-(benzyloxy)-2-(1H-imidazol-5-yl)phenol] |  |
| 1 to 10 | Fc1ccccc1CCOc1ccccc1-c1cnc[nH]1 [compound 1106, 5-(2-(2-fluorophenethoxy)phenyl)-1H-imidazole] |  |
| 10 to 100 | c1ccc(-c2cncn2-c2ccccc2)cc1 [compound 1108, 1,5-diphenyl-1H-imidazole] |  |
| 10 to 100 | CC(COc1ccccc1-c1c[nH]cn1)c1ccccc1Cl (centres unmarked) [compound 1109, 4-(2-(2-(2-chlorophenyl)propoxy)phenyl)-1H-imidazole] |  |
| 10 to 100 | Oc1c(Cl)cc(Cl)c(OCCc2ccccc2Cl)c1-c1cnc[nH]1 [compound 1111, 4,6-dichloro-3-(2-chlorophenethoxy)-2-(1H-imidazol-5-yl)phenol] |  |
| > 100 | c1ccc2c(c1)NCn1cncc1-2 [compound 1114, 5,6-dihydroimidazo[1,5-c]quinazoline] |  |
| > 100 | Nn1cncc1-c1ccccc1 [compound 1115, 5-phenyl-1H-imidazol-1-amine] |  |
| 10 to 100 | Ic1ccccc1-c1cnc[nH]1 [compound 1119, 5-(2-iodophenyl)-1H-imidazole] |  |
| 10 to 100 | Oc1cc(F)ccc1-c1cnc[nH]1 [compound 1120, 5-fluoro-2-(1H-imidazol-5-yl)phenol] |  |
| > 100 | CC(=O)Nc1ccccc1-c1c[nH]cn1 [compound 1121, N-(2-(1H-imidazol-4-yl)phenyl)acetamide] |  |
| 10 to 100 | Oc1ccc(Cl)cc1-c1cncn1-c1cccnc1 [compound 1122, 4-chloro-2-(1-(pyridin-3-yl)-1H-imidazol-5-yl)phenol] |  |
| 10 to 100 | Oc1c(-c2cnc[nH]2)ccc(F)c1Cl [compound 1129, 2-chloro-3-fluoro-6-(1H-imidazol-5-yl)phenol] |  |
| 1 to 10 | Oc1cc(F)c(Cl)cc1-c1cnc[nH]1 [compound 1130, 4-chloro-5-fluoro-2-(1H-imidazol-5-yl)phenol] |  |
